Test results taken from paper PMC7078479, “Sulfamoyl Heteroarylcarboxylic Acids as Promising Metallo-β-Lactamase Inhibitors for Controlling Bacterial Carbapenem Resistance” (mBio, 2020).
pKi: −log10 of the molar value. Like-named read-outs stand apart in the source and are kept apart here.

Assays:
[1] = system: IMP producers rather than NDM/VIM producers; settings: cited from earlier work
E. coli DH5α/pBC-VIM-2 = assay: Susceptibility and checkerboard testing, VIM-2-producing E. coli; format: cell-based, Escherichia coli; settings: for MIC: Escherichia coli
Protocol: (§1) MICs were determined via the microdilution method according to the CLSI guidelines ([38]). In brief, 5 × 10^4 bacterial cells were inoculated in 100 μl of cation-adjusted Mueller-Hinton broth (Becton, Dickinson and Company, Franklin Lakes, NJ) containing the β-lactams and appropriately diluted inhibitors. The final concentration of DMSO was maintained at 2% in the assays. The tested plates were then incubated at 35°C for 16 to 20 h. The MIC value was determined as the lowest concentration of tested β-lactams where no bacterial growth was visibly observed. The optical density at 600 nm (OD600) value was measured using a plate reader for drawing the heat maps. The FIC index value was calculated using the following equation: FIC index=MIC of β-lactam with inhibitor/MIC of β-lactam alone+MIC of inhibitor with β-lactam/MIC of inhibitor alone
(§2) Unless noted otherwise, the FIC index was defined as the lowest value among all obtained values. The synergistic effect was defined as the effect observed when the FIC index value was ≤0.5.

IMP-1 = molecular target: T1, IMP-1 (Serratia marcescens, UniProt P52699); assay: Inhibition of IPM hydrolysis by purified IMP-1, Ki by Lineweaver-Burk plots; format: biochemical
T1 construct: made in house
T1 sequence (P52699 19-246 limits assumed): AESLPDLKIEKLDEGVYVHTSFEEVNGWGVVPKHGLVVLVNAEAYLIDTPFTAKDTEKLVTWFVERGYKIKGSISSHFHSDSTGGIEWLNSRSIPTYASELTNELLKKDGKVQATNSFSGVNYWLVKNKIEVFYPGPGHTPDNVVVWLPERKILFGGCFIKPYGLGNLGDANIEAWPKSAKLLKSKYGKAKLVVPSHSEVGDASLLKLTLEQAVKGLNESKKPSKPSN
Protocol: (§3) MBL (10 nM) was mixed with the inhibitors and incubated for 5 min at 30°C. IPM was added to reach a concentration of 150 μM, and the velocity of IPM hydrolysis was monitored at 298 nm. The assay was performed at 30°C using 10 mM HEPES (pH 7.5) buffer containing 200 mM NaCl and 50 μg/ml bovine serum albumin (BSA) for IMP-1, NDM-1, VIM-2, and SMB-1. For SFH-1 and L1, another 10 mM HEPES (pH 7.5) buffer containing 200 mM NaCl, 20 μM ZnSO4, and 50 μg/ml BSA was used.
(§4) Initial velocities (vo) were measured after varying the concentrations of IPM and inhibitors, and inverse velocities (1/vo) were plotted against inverse IPM concentrations […]. Lineweaver-Burk plots were constructed to obtain the inhibition constant (Ki) with the competitive inhibition model using the SigmaPlot 13 suite (Hulinks).

NDM-1 = molecular target: T2, NDM-1 (Klebsiella pneumoniae, UniProt C7C422); assay: Inhibition of IPM hydrolysis by purified NDM-1, Ki by Lineweaver-Burk plots; format: biochemical; settings: IPM as substrate, competitive model, mean of three replicates; read-out: Inhibition constant Ki NDM-1
T2 construct: made in house
T2 sequence (C7C422 29-270 limits assumed): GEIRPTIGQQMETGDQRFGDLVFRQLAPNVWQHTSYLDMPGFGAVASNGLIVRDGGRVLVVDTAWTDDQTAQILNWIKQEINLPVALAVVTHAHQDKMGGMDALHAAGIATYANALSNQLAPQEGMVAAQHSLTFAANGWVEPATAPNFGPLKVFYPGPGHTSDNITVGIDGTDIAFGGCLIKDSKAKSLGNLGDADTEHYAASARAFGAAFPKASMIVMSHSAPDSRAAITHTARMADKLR
Protocol: as §3, §4

VIM-2 = molecular target: T3, VIM-2 (Escherichia coli, UniProt Q5U7L7); assay: Inhibition of IPM hydrolysis by purified VIM-2, Ki by Lineweaver-Burk plots; format: biochemical; settings: IPM as substrate, competitive model, mean of three replicates; read-out: Inhibition constant Ki VIM-2
T3 construct: made in house
Protocol: as §3, §4

E. coli DH5α/pBC-IMP-1 = assay: Susceptibility and checkerboard testing, IMP-1-producing E. coli; format: cell-based, Escherichia coli; settings: for MIC: Escherichia coli
Protocol: as §1, §2

E. coli DH5α/pBC-NDM-1 = assay: Susceptibility and checkerboard testing, NDM-1-producing E. coli; format: cell-based, Escherichia coli; settings: for MIC: Escherichia coli
Protocol: as §1, §2

E. coli DH5α/pBC-TMB-2 = assay: Susceptibility testing, TMB-2-producing E. coli; format: cell-based; settings: Escherichia coli
Protocol: as §1

[2] = system: E. coli BL21(DE3)/pET-SPM-1; assay: Susceptibility testing, SPM-1-producing E. coli; format: cell-based; settings: Escherichia coli
Protocol: as §1

[3] = system: E. coli BL21(DE3)/pET-DIM-1; assay: Susceptibility testing, DIM-1-producing E. coli; format: cell-based; settings: Escherichia coli
Protocol: as §1

[4] = system: E. coli BL21(DE3)/pET-SIM-1; assay: Susceptibility testing, SIM-1-producing E. coli; format: cell-based; settings: Escherichia coli
Protocol: as §1

[5] = system: E. coli BL21(DE3)/pET-KHM-1; assay: Susceptibility testing, KHM-1-producing E. coli; format: cell-based; settings: Escherichia coli
Protocol: as §1

[6] = system: P. aeruginosa PAO1/pME-IMP-1; assay: Susceptibility testing, IMP-1-producing P. aeruginosa PAO1; format: cell-based; settings: Pseudomonas aeruginosa
Protocol: as §1

[7] = system: P. aeruginosa PAO1/pME-NDM-1; assay: Susceptibility testing, NDM-1-producing P. aeruginosa PAO1; format: cell-based; settings: Pseudomonas aeruginosa
Protocol: as §1

[8] = system: P. aeruginosa PAO1/pME-VIM-2; assay: Susceptibility testing, VIM-2-producing P. aeruginosa PAO1; format: cell-based; settings: Pseudomonas aeruginosa
Protocol: as §1

[9] = system: IMP-type MBL-producing Enterobacteriaceae; assay: Susceptibility testing, 19 IMP-type MBL-producing Enterobacteriaceae isolates; format: cell-based
Protocol: as §1

[10] = system: IMP-1-producing Acinetobacter spp.; assay: Susceptibility testing, 8 IMP-1-producing Acinetobacter spp. isolates; format: cell-based; settings: addition of SPC, concentration not given (Fig. S5)
Protocol: as §1

[11] = system: NDM-type MBL-producing Enterobacteriaceae; assay: Susceptibility testing, 14 NDM-type MBL-producing Enterobacteriaceae isolates; format: cell-based; settings: NDM producers
Protocol: as §1

HeLa cells = assay: Toxicity assay in HeLa cells (CellTiter 96 AQueous); format: cell-based; settings: 24 h exposure, cell proliferation assay
Protocol: HeLa cells were seeded at 5,000 cells per well in 96-well plates and cultured in Dulbecco’s modified Eagle’s medium (DMEM) (Wako Pure Chemical Industries, Osaka, Japan). After incubation for 24 h at 37°C with 5% CO2, staurosporine (Sigma-Aldrich, St. Louis, MO) and SHCs were added to each well (final DMSO concentration was 1%), after which the plates were incubated for another 24 h. Twenty microliters of tetrazolium solution, obtained from a CellTiter 96 AQueous one-solution cell proliferation assay kit (Promega, Madison, WI), was added into each well. The plate was incubated for 3 h under the same conditions mentioned above, and the absorbance at 490 nm was measured for the determination of cell proliferation.

[12] = Human liver microsomal stability test; format: in vitro ADME; settings: 100 nM compound, 0.1 mg protein/ml, 35 min, 37°C
Protocol: Human liver microsomal stability tests were performed by Sumika Chemical Analysis Service (Osaka, Japan). Compounds (100 nM) were incubated with human liver microsomes (0.1 mg protein/ml) for 35 min at 37°C and subjected to liquid chromatography-tandem mass spectrometry (LC-MS/MS) for quantification of the loss of the tested compounds.

[13] = system: IMP-1-producing E. coli NUBL-24; assay: Mouse infection model, E. coli NUBL-24, survival; format: in vivo, mice; settings: MPM 0.8 mg/kg and SPC 10 mg/kg versus MPM alone, E. coli NUBL-24 1 × 10^7 CFU
Protocol: (§5) All experiments were approved by the Nagoya University Animal Ethics Committee, and all experiments were performed in a manner that minimized animal suffering. Male CD1 mice (4 weeks old; 20 to 25 g body weight) were purchased from Charles River Laboratories Japan (Yokohama, Japan). E. coli NUBL-24 (blaIMP-1) and K. pneumoniae MS5674 (blaNDM-1 and blaVIM-1) strains were inoculated on LB agar plates and grown for 18 h at 37°C. Bacteria were then scraped from the plates, and their concentration was adjusted to 5 × 10^6 to 1 × 10^7 CFU in saline solution containing 5% mucin; this solution was then i.p. injected into the mice. At 1 and 3 h after infection, saline solution, MPM, inhibitors, and a combination of MPM and inhibitor were i.p. injected. Mice were monitored for 7 days to formulate survival curves, after which they were euthanized by CO2 asphyxiation.

[14] = system: dually NDM-1/VIM-1-producing Klebsiella pneumoniae MS5674; assay: Mouse infection model, K. pneumoniae MS5674, survival; format: in vivo, mice; settings: MPM 4 mg/kg and SPC 10 mg/kg versus MPM alone, K. pneumoniae MS5674 1 × 10^7 CFU
Protocol: as §5

[15] = read-out: MIC of MPM + inhibitor (8 μg/ml)
[16] = read-out: MIC of MPM + inhibitor (32 μg/ml)
[17] = PAO1, read-out: MIC of MPM + inhibitor (10 μg/ml)
[18] = PAO1, read-out: MIC of MPM + inhibitor (50 μg/ml)

N[C@H](CN[C@H](CN[C@@H](CC(=O)O)C(=O)O)C(=O)O)C(=O)O [AMA, Aspergillomarasmine A]
Selectivity between IMP and NDM/VIM producers [1]: superior for NDM/VIM

O=C(O)c1ncsc1NS(=O)(=O)c1cccnc1 [ANT431]
Selectivity between IMP and NDM/VIM producers [1]: superior for NDM/VIM

CC(C)(O/N=C(\C(=O)N[C@@H]1C(=O)N2C(C(=O)[O-])=C(C[n+]3ccccc3)CS[C@H]12)c1csc(N)n1)C(=O)O [CAZ, ceftazidime, reference compound]
MIC (E. coli DH5α/pBC-VIM-2; read-out: MIC of CAZ without inhibitor): 16 µg/mL

NS(=O)(=O)c1sccc1C(=O)O [Compound 1]
pKi (IMP-1): 4.47 | pKi (NDM-1): 5.11 | pKi (VIM-2): 4.81

NS(=O)(=O)c1sc(Cl)cc1C(=O)O [Compound 2]
pKi (IMP-1): 4.72 | pKi (NDM-1): 4.71 | pKi (VIM-2): 5.64

CCc1oc(CC)c(S(N)(=O)=O)c1C(=O)O [Compound 4, 2,5-diethyl-4-sulfamoylfuran-3-carboxylic acid]
pKi (IMP-1): 6.52 | pKi (NDM-1): 6.04 | pKi (VIM-2): 6.00

CCCc1oc(CCC)c(S(N)(=O)=O)c1C(=O)O [Compound 5, 2,5-dipropyl-4-sulfamoylfuran-3-carboxylic acid]
pKi (IMP-1): 6.42 | pKi (NDM-1): 6.29 | pKi (VIM-2): 6.34

NS(=O)(=O)c1c(C2CCCC2)oc(C2CCCC2)c1C(=O)O [Compound 6, 2,5-dicyclopentyl-4-sulfamoylfuran-3-carboxylic acid]
pKi (IMP-1): 5.90 | pKi (NDM-1): 6.60 | pKi (VIM-2): 6.12

Cc1c(C(=O)O)c(S(N)(=O)=O)c(C)n1C [Compound 7, 1,2,5-trimethyl-4-sulfamoylpyrrole-3-carboxylic acid]
pKi (IMP-1): 5.91 | pKi (NDM-1): 5.04 | pKi (VIM-2): 6.38

Cc1c(C(=O)O)c(S(N)(=O)=O)c(C)n1C1CC1 [Compound 9, 1-cyclopropyl-2,5-dimethyl-4-sulfamoylpyrrole-3-carboxylic acid]
pKi (IMP-1): 4.85 | pKi (NDM-1): 5.31 | pKi (VIM-2): 5.77

Cc1c(C(=O)O)c(S(N)(=O)=O)c(C)n1-c1ccccc1 [Compound 10, 2,5-dimethyl-1-phenyl-4-sulfamoylpyrrole-3-carboxylic acid]
pKi (IMP-1): 5.12 | pKi (NDM-1): 4.99 | pKi (VIM-2): 4.68

CC/C(C(=O)[O-])=C(\CC)C(=O)[O-].[Na+].[Na+] [ME1071]
Selectivity between IMP and NDM/VIM producers [1]: superior for IMP

O=C(O)/C(S)=C/c1c(Cl)ccc(Cl)c1Cl [ML302F]
Selectivity between IMP and NDM/VIM producers [1]: superior for IMP

CN1CCN(NC(=O)CN2C(=O)/C(=C/c3c(Cl)ccc(Cl)c3Cl)SC2=S)CC1 [ML302]
Selectivity between IMP and NDM/VIM producers [1]: superior for IMP

CCc1c(C(=O)O)c(S(N)(=O)=O)c(CC)n1C [SPC, 2,5-diethyl-1-methyl-4-sulfamoylpyrrole-3-carboxylic acid]
pKi (IMP-1): 6.59 | pKi (NDM-1): 6.08 | pKi (VIM-2): 7.70 | Reduction in MPM MIC (E. coli DH5α/pBC-IMP-1; E. coli DH5α/pBC-IMP-1, 2 μg/ml compound): 32 fold | MIC (E. coli DH5α/pBC-IMP-1; [15]): 0.031 µg/mL | MIC (E. coli DH5α/pBC-IMP-1; [16]): 0.031 µg/mL | Reduction in MPM MIC (E. coli DH5α/pBC-NDM-1; E. coli DH5α/pBC-NDM-1, 2 μg/ml compound): 256 fold | MIC (E. coli DH5α/pBC-NDM-1; [15]): ≤ 0.25 µg/mL | MIC (E. coli DH5α/pBC-NDM-1; [16]): ≤ 0.25 µg/mL | Reduction in CAZ MIC (E. coli DH5α/pBC-VIM-2; E. coli DH5α/pBC-VIM-2, 2 μg/ml compound): 16 fold | MIC (E. coli DH5α/pBC-VIM-2; read-out: MIC of CAZ + inhibitor (8 μg/ml)): 1 µg/mL | MIC (E. coli DH5α/pBC-VIM-2; read-out: MIC of CAZ + inhibitor (32 μg/ml)): 1 µg/mL | MIC (E. coli DH5α/pBC-TMB-2; [15]): 0.063 µg/mL | MIC (E. coli DH5α/pBC-TMB-2; [16]): 0.031 µg/mL | MIC [2, 15]: 0.063 µg/mL | MIC [2, 16]: 0.063 µg/mL | MIC [3, 15]: 2 µg/mL | MIC [3, 16]: 0.063 µg/mL | MIC [4, 15]: 1 µg/mL | MIC [4, 16]: 0.125 µg/mL | MIC [5, 15]: 0.125 µg/mL | MIC [5, 16]: 0.063 µg/mL | MIC [6, 17]: 64 µg/mL | MIC [6, 18]: 16 µg/mL | MIC [7, 17]: 4 µg/mL | MIC [7, 18]: 4 µg/mL | MIC [8, 17]: 8 µg/mL | MIC [8, 18]: 4 µg/mL | Isolates whose MPM MIC decreased to susceptibility criteria (MIC ≤1 μg/ml) ([9]; addition of inhibitor, concentration not given (Fig. S5), IMP-producing Enterobacteriaceae): 17/19 | Isolates with equal or increased reactivity toward SPC instead of SFC ([9]; reduction in MPM MIC, 4 μg/ml SPC and SFC, IMP producers): 18/19 | Isolates whose MPM MIC decreased to susceptibility criteria (MIC ≤2 μg/ml) [10]: 6/8 | Isolates whose MPM MIC decreased to susceptibility criteria (MIC ≤1 μg/ml) ([11]; addition of inhibitor, concentration not given (Fig. S5)): 7/14 | Isolates with equal or increased reactivity toward SPC instead of SFC ([11]; reduction in MPM MIC, 4 μg/ml SPC and SFC): 14/14 | Toxicity in HeLa cells (HeLa cells): low toxicity | Stability in human liver microsomes [12]: high stability | Mortality of infected mice under MPM-SPC combination therapy [13]: significantly reduced the mortality | Mortality of infected mice under MPM-SPC combination therapy [14]: significantly reduced the mortality

NCCN[C@H]1CC[C@H](CC(=O)N[C@H]2Cc3cccc(C(=O)O)c3OB2O)CC1 [VNRX-5133, taniborbactam]
Selectivity between IMP and NDM/VIM producers [1]: superior for NDM/VIM
